In patent US10143731B2, “Peptides and combination of peptides for use in immunotherapy against various cancers” (immatics biotechnologies GmbH, priority 2015, dated 2018):

Test system: HLA-A*24
Assay: MHC binding assay by UV-ligand exchange and beta2m ELISA, HLA-A*24
Parameters: species or system human
Settings: binding to HLA-A*24 ranged by peptide exchange yield (UV-ligand exchange, β2m ELISA)
Excerpt: MHC Binding Assays Candidate peptides for T cell based therapies according to the present invention were further tested for their MHC binding capacity (affinity). The individual peptide-MHC complexes were produced by UV-ligand exchange, where a UV-sensitive peptide is cleaved upon UV-irradiation, and exchanged with the peptide of interest as analyzed. Only peptide candidates that can effectively bind and stabilize the peptide-receptive MHC molecules prevent dissociation of the MHC complexes. To determine the yield of the exchange reaction, an ELISA was performed based on the detection of the light chain (β2m) of stabilized MHC complexes. The assay was performed as generally described in Rodenko et al. (Rodenko et al., 2006).
96 well MAXISorp plates (NUNC) were coated over night with 2 ug/ml streptavidin in PBS at room temperature, washed 4× and blocked for 1 h at 37° C. in 2% BSA containing blocking buffer. Refolded HLA-A*02:01/MLA-001 monomers served as standards, covering the range of 15-500 ng/ml. Peptide-MHC monomers of the UV-exchange reaction were diluted 100 fold in blocking buffer. Samples were incubated for 1 h at 37° C., washed four times, incubated with 2 ug/ml HRP conjugated anti-β2m for 1 h at 37° C., washed again and detected with TMB solution that is stopped with […]. Absorption was measured at 450 nm. Candidate peptides that show a high exchange yield (preferably higher than 50%, most preferred higher than 75%) are generally preferred for a generation and production of antibodies or fragments thereof, and/or T cell receptors or fragments thereof, as they show sufficient avidity to the MHC molecules and prevent dissociation of the MHC complexes.

Substance | Peptide exchange
160 (VYTLDIPVL; listed as Homo sapiens) [compound 160] | ++++ (> = 75% = ++++)
161 (IYLVSIPEL; listed as Homo sapiens) [compound 161] | ++++ (> = 75% = ++++)
166 (YYVESGKLF; listed as Homo sapiens) [compound 166] | ++++ (> = 75% = ++++)
168 (KYQDILETI; listed as Homo sapiens) [compound 168] | ++++ (> = 75% = ++++)
172 (TYTTVPRVAF; listed as Homo sapiens) [compound 172] | ++++ (> = 75% = ++++)
173 (IYSWILDHF; listed as Homo sapiens) [compound 173] | ++++ (> = 75% = ++++)
175 (YYEVHKELF; listed as Homo sapiens) [compound 175] | ++++ (> = 75% = ++++)
177 (VYPWLGALL; listed as Homo sapiens) [compound 177] | ++++ (> = 75% = ++++)
179 (MYDSYWRQF; listed as Homo sapiens) [compound 179] | ++++ (> = 75% = ++++)
181 (LYLDIINLF; listed as Homo sapiens) [compound 181] | ++++ (> = 75% = ++++)
184 (VFQNFPLLF; listed as Homo sapiens) [compound 184] | ++++ (> = 75% = ++++)
186 (IFPQFLYQF; listed as Homo sapiens) [compound 186] | ++++ (> = 75% = ++++)
187 (TYLRDQHFL; listed as Homo sapiens) [compound 187] | ++++ (> = 75% = ++++)
192 (SYALLTYMI; listed as Homo sapiens) [compound 192] | ++++ (> = 75% = ++++)
193 (RFHPTPLLL; listed as Homo sapiens) [compound 193] | ++++ (> = 75% = ++++)
195 (TYSVSFPMF; listed as Homo sapiens) [compound 195] | ++++ (> = 75% = ++++)
202 (VYWDSAGAAHF; listed as Homo sapiens) [compound 202] | ++++ (> = 75% = ++++)

Substance | Peptide exchange
210 (IYTMIYRNL; listed as Homo sapiens) [compound 210] | ++++ (> = 75% = ++++)
211 (YYLEVGKTLI; listed as Homo sapiens) [compound 211] | ++++ (> = 75% = ++++)
216 (QYSSVFKSL; listed as Homo sapiens) [compound 216] | ++++ (> = 75% = ++++)
217 (FFPPTRQMGLLF; listed as Homo sapiens) [compound 217] | ++++ (> = 75% = ++++)
227 (IFLDYEAGTLSF; listed as Homo sapiens) [compound 227] | ++++ (> = 75% = ++++)
228 (KYTSWYVAL; listed as Homo sapiens) [compound 228] | ++++ (> = 75% = ++++)
267 (KYMVYPQTF; listed as Homo sapiens) [compound 267] | ++++ (> = 75% = ++++)
271 (LYHDIFSRL; listed as Homo sapiens) [compound 271] | ++++ (> = 75% = ++++)
272 (QYLQDAYSF; listed as Homo sapiens) [compound 272] | ++++ (> = 75% = ++++)
274 (AYLHSHALI; listed as Homo sapiens) [compound 274] | ++++ (> = 75% = ++++)
276 (VYGFQWRHF; listed as Homo sapiens) [compound 276] | ++++ (> = 75% = ++++)
277 (VYQGHTALL; listed as Homo sapiens) [compound 277] | ++++ (> = 75% = ++++)
278 (RYISDQLFTNF; listed as Homo sapiens) [compound 278] | ++++ (> = 75% = ++++)
280 (RYPDNLKHLYL; listed as Homo sapiens) [compound 280] | ++++ (> = 75% = ++++)
282 (KFVDSTFYL; listed as Homo sapiens) [compound 282] | ++++ (> = 75% = ++++)
289 (KYPVEWAKF; listed as Homo sapiens) [compound 289] | ++++ (> = 75% = ++++)

Test system: CD8+ T cells
Assay: In vitro T-cell priming assay (aAPCs loaded with peptide/MHC and anti-CD28, multimer staining readout)
Assay type: cell-based, human
Settings: in vitro immunogenicity of HLA class I peptides
Description: In an aspect, the peptides are pre-screened for immunogenicity before being included in the warehouse. By way of example, and not limitation, the immunogenicity of the peptides included in the warehouse is determined by a method comprising in vitro T-cell priming through repeated stimulations of CD8+ T cells from healthy donors with artificial antigen presenting cells loaded with peptide/MHC complexes and anti-CD28 antibody.
In order to obtain information regarding the immunogenicity of the TUMAPs of the present invention, the inventors performed investigations using an in vitro T-cell priming assay based on repeated stimulations of CD8+ T cells with artificial antigen presenting cells (aAPCs) loaded with peptide/MHC complexes and anti-CD28 antibody.
In order to perform in vitro stimulations by artificial antigen presenting cells loaded with peptide-MHC complex (pMHC) and anti-CD28 antibody, the inventors first isolated CD8+ T cells from fresh HLA-A*02 leukapheresis products via positive selection using CD8 microbeads (Miltenyi Biotec, Bergisch-Gladbach, Germany) of healthy donors obtained from the University clinics Mannheim, Germany, after informed consent.
PBMCs and isolated CD8+ lymphocytes were incubated in T-cell medium (TCM) until use consisting of RPMI-Glutamax (Invitrogen, Karlsruhe, Germany) supplemented with 10% heat inactivated human AB serum (PAN-Biotech, Aidenbach, Germany), 100 U/ml Penicillin/100 μg/ml Streptomycin (Cambrex, Cologne, Germany), 1 mM sodium pyruvate (CC Pro, Oberdorla, Germany), 20 μg/ml Gentamycin (Cambrex). 2.5 ng/ml IL7 (PromoCell, Heidelberg, Germany) and 10 U/ml IL-2 (Novartis Pharma, Nürnberg, Germany) were also added to the TCM at this step.
Generation of pMHC/anti-CD28 coated beads, T-cell stimulations and readout was performed in a highly defined in vitro system using four different pMHC molecules per stimulation condition and 8 different pMHC molecules per readout condition.
The purified co-stimulatory mouse IgG2a anti human CD28 Ab 9.3 (Jung et al., 1987) was chemically biotinylated using Sulfo-N-hydroxysuccinimidobiotin as recommended by the manufacturer (Perbio, Bonn, Germany). Beads used were 5.6 μm diameter streptavidin coated polystyrene particles (Bangs Laboratories, Illinois, USA).
pMHC used for positive and negative control stimulations were A*0201/MLA-001 (peptide […] (SEQ ID NO. 303) from modified Melan-A/MART-1) and A*0201/DDX5-001 ([…] from DDX5, SEQ ID NO. 304), respectively.
800.000 beads/200 μl were coated in 96-well plates in the presence of 4×12.5 ng different biotin-pMHC, washed and 600 ng biotin anti-CD28 were added subsequently in a volume of 200 μl. Stimulations were initiated in 96-well plates by co-incubating 1×10^6 CD8+ T cells with 2×10^5 washed coated beads in 200 μl TCM supplemented with 5 ng/ml IL-12 (PromoCell) for 3 days at 37° C. Half of the medium was then exchanged by fresh TCM supplemented with 80 U/ml IL-2 and incubating was continued for 4 days at 37° C. This stimulation cycle was performed for a total of three times. For the pMHC multimer readout using 8 different pMHC molecules per condition, a two-dimensional combinatorial coding approach was used as previously described (Andersen et al., 2012) with minor modifications encompassing coupling to 5 different fluorochromes. Finally, multimeric analyses were performed by staining the cells with Live/dead near IR dye (Invitrogen, Karlsruhe, Germany), CD8-FITC antibody clone SK1 (BD, Heidelberg, Germany) and fluorescent pMHC multimers. For analysis, a BD LSRII SORP cytometer equipped with appropriate lasers and filters was used. Peptide specific cells were calculated as percentage of total CD8+ cells. Evaluation of multimeric analysis was done using the FlowJo software (Tree Star, Oregon, USA). In vitro priming of specific multimer+CD8+ lymphocytes was detected by comparing to negative control stimulations.

Substance | Wells positive [%]
5 (GIVAHIQEV; listed as Homo sapiens) [compound 5] | + (<20% = +)
18 (ILLDLTDNRL; listed as Homo sapiens) [compound 18] | + (<20% = +)
23 (SLFSDEFKV; listed as Homo sapiens) [compound 23] | ++++ (> = 70% = ++++)
26 (ALQEELTEL; listed as Homo sapiens) [compound 26] | + (<20% = +)
29 (YLLDPSITL; listed as Homo sapiens) [compound 29] | + (<20% = +)
31 (TITETTVEV; listed as Homo sapiens) [compound 31] | + (<20% = +)
35 (FLLPFSTVYL; listed as Homo sapiens) [compound 35] | + (<20% = +)
90 (FLQDLEQRL; listed as Homo sapiens) [compound 90] | + (<20% = +)
141 (FLDKVLVAA; listed as Homo sapiens) [compound 141] | + (<20% = +)
149 (ILNTHITEL; listed as Homo sapiens) [compound 149] | + (<20% = +)
196 (LYIDRPLPYL; listed as Homo sapiens) [compound 196] | ++++ (> = 70% = ++++)
197 (EYSLFPGQVVI; listed as Homo sapiens) [compound 197] | + (<20% = +)
207 (AYVVFVSTL; listed as Homo sapiens) [compound 207] | + (<20% = +)
218 (YYKSTSSAF; listed as Homo sapiens) [compound 218] | + (<20% = +)
230 (KLQNIMMLL; listed as Homo sapiens) [compound 230] | ++++ (> = 70% = ++++)
268 (QYLGQIQHI; listed as Homo sapiens) [compound 268] | + (<20% = +)
269 (YFIDSTNLKTHF; listed as Homo sapiens) [compound 269] | + (<20% = +)
285 (HYPPVQVLF; listed as Homo sapiens) [compound 285] | + (<20% = +)
